# Patent publication US11242344B2, “(4-hydroxypyrrolidin-2-yl)-heterocyclic compounds and methods of use thereof” (Genentech, Inc., priority 2017, dated 2022)
# Molecular target: NanoLuc VHL fusion protein (Homo sapiens (Human), UniProt P40337)
# Assay: VHL HEK-293 BRET Assay (NanoBRET Target Engagement)
# Format: cell-based
# Conditions: geometric mean where more than one measurement
# Summary of the method: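 HEK293 cells stably expressing NanoLuc-VHL, 2 h with compound titration and 1 uM final tracer, then Nano-Glo substrate plus extracellular NanoLuc inhibitor. BRET ratio 610/460 nm, background-corrected with no-tracer wells, normalised to DMSO and 10 uM unlabeled VHL antagonist controls; IC50 by four-parameter fit.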
# Sequence of NanoLuc VHL fusion protein (P40337 whole entry, looked up, the tested form may be a part): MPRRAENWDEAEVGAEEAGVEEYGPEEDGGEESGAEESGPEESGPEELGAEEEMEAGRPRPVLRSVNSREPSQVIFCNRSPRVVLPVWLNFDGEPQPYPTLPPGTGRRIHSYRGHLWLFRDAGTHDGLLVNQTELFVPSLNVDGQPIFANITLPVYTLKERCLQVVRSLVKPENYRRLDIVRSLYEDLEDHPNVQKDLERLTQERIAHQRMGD
# Sequence of NanoLuc VHL fusion protein (Q15370 whole entry partner, looked up, the tested form may be a part): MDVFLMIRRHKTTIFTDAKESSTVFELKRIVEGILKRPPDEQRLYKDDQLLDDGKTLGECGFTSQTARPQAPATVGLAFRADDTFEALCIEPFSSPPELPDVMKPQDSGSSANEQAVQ
# Sequence of NanoLuc VHL fusion protein (Q15369 whole entry partner, looked up, the tested form may be a part): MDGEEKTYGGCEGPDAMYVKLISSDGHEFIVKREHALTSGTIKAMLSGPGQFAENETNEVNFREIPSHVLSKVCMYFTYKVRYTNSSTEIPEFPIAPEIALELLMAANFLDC
smiles,measurement,value
"Cc1ncsc1-c1ccc([C@]2(C)NC(C3C[C@@H](O)CN3C(=O)[C@@H](NC(=O)CCCCCCCCCCNC(=O)c3cc4c(cc3CS(C)(=O)=O)-c3cn(C)c(=O)c5[nH]cc(c35)CN4c3ncc(F)cc3F)C(C)(C)C)=NC2=O)cc1 (single isomer, unassigned) [Example 1005.1]",IC50,64.6 µM
